Here are results for one compound from patent EP4180035A1, “NOVEL BETA-LACTONE INHIBITORS OF HYDROLYTIC ENZYMES AND THEIR MEDICAL AND NON MEDICAL USES” (Max-Planck-Gesellschaft zur Förderung der Wissenschaften …, priority 2021, dated 2023).

Holding throughout (assay type): biochemical
Test [1] deals with T1, β5 subunit of the yeast 20S proteasome (Saccharomyces cerevisiae, UniProt P30656).
T1 construct: purified yeast 20S proteasome core particle (yCP); host or cells: yeast
The test is described as follows: IC50 determination with purified yeast 20S proteasome core particle (yCP), chymotrypsin-like activity, fluorogenic AMC substrate. The conditions noted are these: yCP 0.05 mg/mL, 100 mM Tris-HCl pH 7.5; 45 min incubation at room temperature; Suc-Leu-Leu-Val-Tyr-AMC 200 µM (ChT-L); triplicate. Here is the method: (§1) The concentration of purified yCP was determined spectrophotometrically at 280 nm. yCP (final concentration: 0.05 mg/mL in 100 mM Tris-HCI, pH 7.5) was mixed with DMSO as a control or serial dilutions of the compound 1 in DMSO, thereby not surpassing a final concentration of 10% (v/v) DMSO. After an incubation time of 45 min at room temperature, fluorogenic substrates Boc-Leu-Arg-Arg-AMC, Z-Leu-Leu-Glu-AMC, and Suc-Leu-Leu-Val-Tyr-AMC (final concentration of 200 µM) were added to measure the residual activity of […], and chymotrypsin-like (ChT-L, β5 subunit), respectively. The assay mixture was incubated for another 60 min at RT and afterward diluted 1:10 in 20 mM Tris-HCI, pH 7.5. The AMC-molecules released by hydrolysis were measured in triplicate with a Varian Cary Eclipse Fluorescence Spectrophotometer (Agilent Technologies) at λexc = 360 nm and λem = 460 nm. Relative fluorescence units were normalized to the DMSO treated control. The calculated residual activities were plotted against the logarithm of the applied inhibitor concentration and fitted with GraphPad Prism 9. Half maximum inhibitory concentration (IC50) values were deduced from the fitted data.

Test [2] deals with T2, β2 subunit of the yeast 20S proteasome (Saccharomyces cerevisiae, UniProt P25043).
T2 construct: purified yeast 20S proteasome core particle (yCP); host or cells: yeast
Description: IC50 determination with purified yeast 20S proteasome core particle (yCP), trypsin-like activity, fluorogenic AMC substrate. The conditions noted are these: yCP 0.05 mg/mL, 100 mM Tris-HCl pH 7.5; 45 min incubation at room temperature; fluorogenic substrate 200 µM, trypsin-like (T-L); read-out: binding affinities for β2. Here is the method:
as §1

Test [3] has as its target T3, β1 subunit of the yeast 20S proteasome (Saccharomyces cerevisiae, UniProt P38624).
T3 construct: purified yeast 20S proteasome core particle (yCP); host or cells: yeast
Description: IC50 determination with purified yeast 20S proteasome core particle (yCP), caspase-like activity, fluorogenic AMC substrate. The note with it: yCP 0.05 mg/mL, 100 mM Tris-HCl pH 7.5; 45 min incubation at room temperature; fluorogenic substrate 200 µM, caspase-like (C-L); read-out: binding affinities for β1. How it is done: as §1

`CC(C)C1C(=O)OC1C(=O)O` (stereo not drawn) [Compound 1, 3-isopropyl-4-oxo-2-oxetanecarboxylic acid]: the IC50 in test [1] turned out to be 6.2 µM; in test [2], 60 µM; in test [3], 625 µM.
